≈ marks a conversion by molar mass, not a printed value.
Assays:
[1] = system: RPMI8226 (multiple myeloma); assay: Multiple myeloma cell growth inhibition, MTT, 72 h (Example 6); format: cell-based, human; conditions: Homo sapiens, RPMI-8226; 72 h, MTT, RPMI8226
Procedure, shortened: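 RPMI8226 cells (6000 per well) in RPMI 1640 with 10% FBS were exposed to a range of tetrandrine derivative concentrations for 72 h at 37 °C under 5% CO2. Viable cell concentration was then measured by MTT.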

MG63 (osteosarcoma) = assay: Solid tumor cell growth inhibition, MTT, 72 h (Example 7); format: cell-based, human; conditions: Homo sapiens; 72 h, MTT, MG-63
Procedure, shortened: (§1)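 Cells (4000/well) were seeded in DMEM high glucose with 10% FBS and grown 24 h at 37 °C, 5% CO2, then exposed to tetrandrine derivatives at different concentrations for 72 h. Viable cells were measured by MTT, with viability expressed as % of untreated control (100%).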

PC-3 (prostate cancer) = assay: as above; format: cell-based, human; conditions: for IC50 / IC90: Homo sapiens, 72 h, MTT, PC-3
Procedure, shortened: as §1

[2] = system: CaES-17 (esophageal cancer cell); assay: as above; format: cell-based, human; conditions: Homo sapiens, CaEs17; 72 h, MTT, CAES-17
Procedure, shortened: as §1

[3] = system: Hep-2 (laryngeal carcinoma); assay: as above; format: cell-based, human; conditions: Homo sapiens; 72 h, MTT, Hep 2
Procedure, shortened: as §1

[4] = system: PANC-1 (pancreatic cancer); assay: as above; format: cell-based, human; conditions: for IC50 / IC90: Homo sapiens, 72 h, MTT, PANC-1
Procedure, shortened: as §1

[5] = system: Huh7 (human liver cancer cell); assay: as above; format: cell-based; conditions: Homo sapiens; 72 h, MTT, Huh-7
Procedure, shortened: as §1

[6] = system: U87 MG (malignant glioma cell); assay: as above; format: cell-based; conditions: Homo sapiens, U-87 MG
Procedure, shortened: as §1

[7] = system: Becap37 (human breast cancer cell); assay: as above; format: cell-based; conditions: Homo sapiens; 72 h, MTT, Becap-37
Procedure, shortened: as §1

[8] = system: RKO (human colon adenocarcinoma cell); assay: as above; format: cell-based; conditions: Homo sapiens; 72 h, MTT, RKO
Procedure, shortened: as §1

[9] = system: Hela (human cervical cancer cell); assay: as above; format: cell-based; conditions: Homo sapiens; 72 h, MTT, Hela
Procedure, shortened: as §1

[10] = system: CNE (nasopharyngeal carcinoma cell); assay: as above; format: cell-based; conditions: Homo sapiens
Procedure, shortened: as §1

[11] = system: SK-OV-3 (ovarian cancer cell); assay: as above; format: cell-based; conditions: Homo sapiens
Procedure, shortened: as §1

[12] = system: MGC 803 (human gastric cancer cell); assay: as above; format: cell-based; conditions: Homo sapiens
Procedure, shortened: as §1

A549 (human lung cancer) = assay: as above; format: cell-based; conditions: Homo sapiens; 72 h, MTT, A549
Procedure, shortened: as §1

[13] = system: Jurkat (acute lymphoblastic leukemia, ALL); assay: Leukemia cell growth inhibition, MTT, 72 h (Example 5); format: cell-based, human; conditions: Homo sapiens, Jurkat; 72 h, MTT
Procedure, shortened: (§2)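 Growth inhibition by tetrandrine derivatives, dosed at several concentrations, was assessed via MTT after a 72-hour culture at 37° C.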

[14] = system: K562/adr (drug-resistant, chronic myeloid leukemia, CML); assay: as above; format: cell-based, human; conditions: Homo sapiens, K562/Adr; 72 h, MTT
Procedure, shortened: as §2

[15] = system: Kasumi-1 (acute myeloid leukemia M2 type, AML-M2); assay: as above; format: cell-based, human; conditions: Homo sapiens, Kasumi 1
Procedure, shortened: as §2

[16] = system: H9 (acute lymphoblastic leukemia, ALL); assay: as above; format: cell-based, human; conditions: Homo sapiens; 72 h, MTT
Procedure, shortened: as §2

[17] = system: NB4 (acute promyelocytic leukemia, AML); assay: as above; format: cell-based, human; conditions: Homo sapiens; 72 h, MTT
Procedure, shortened: as §2

Structure (SMILES): COc1ccc2cc1Oc1ccc(cc1)C[C@H]1c3cc(c(OC)cc3CCN1C)Oc1c(OC)c(OC)c(CN(C)[C@@H](C)c3ccccc3)c3c1[C@H](C2)N(C)CC3 [BS-TE-317]
- IC50 [1]: 0.06 µg/mL (≈ 0.0779 µM)
- IC90 [1]: 1.49 µg/mL (≈ 1.94 µM)
- IC50 (MG63 (osteosarcoma)): 1.3 µg/mL (≈ 1.69 µM)
- IC90 (MG63 (osteosarcoma)): 1.9 µg/mL (≈ 2.47 µM)
- IC50 (PC-3 (prostate cancer)): 1.59 µg/mL (≈ 2.06 µM)
- IC90 (PC-3 (prostate cancer)): 2.14 µg/mL (≈ 2.78 µM)
- anti-PC-3 activity increase over tetrandrine (PC-3 (prostate cancer); compared with tetrandrine): ~4 fold
- IC50 [2]: 1.61 µg/mL (≈ 2.09 µM)
- IC90 [2]: 7.4 µg/mL (≈ 9.61 µM)
- IC50 [3]: 1.96 µg/mL (≈ 2.55 µM)
- IC90 [3]: 4.25 µg/mL (≈ 5.52 µM)
- IC50 [4]: 1.4 µg/mL (≈ 1.82 µM)
- IC90 [4]: 4.18 µg/mL (≈ 5.43 µM)
- anti-PANC-1 activity increase over tetrandrine ([4]; compared with tetrandrine): 2 fold
- IC50 [5]: 1.55 µg/mL (≈ 2.01 µM)
- IC90 [5]: 3.72 µg/mL (≈ 4.83 µM)
- IC50 [6]: 0.5 µg/mL (≈ 0.649 µM)
- IC90 [6]: 1.81 µg/mL (≈ 2.35 µM)
- IC50 [7]: 1.3 µg/mL (≈ 1.69 µM)
- IC90 [7]: 3.2 µg/mL (≈ 4.16 µM)
- IC50 [8]: 1.15 µg/mL (≈ 1.49 µM)
- IC90 [8]: 2.49 µg/mL (≈ 3.23 µM)
- IC50 [9]: 0.94 µg/mL (≈ 1.22 µM)
- IC90 [9]: 2.02 µg/mL (≈ 2.62 µM)
- IC50 [10]: 2.3 µg/mL (≈ 2.99 µM)
- IC90 [10]: 3.5 µg/mL (≈ 4.55 µM)
- IC50 [11]: 2 µg/mL (≈ 2.6 µM)
- IC90 [11]: 8.1 µg/mL (≈ 10.5 µM)
- IC50 [12]: 0.73 µg/mL (≈ 0.948 µM)
- IC90 [12]: 1 µg/mL (≈ 1.3 µM)
- IC50 (A549 (human lung cancer)): 2.2 µg/mL (≈ 2.86 µM)
- IC90 (A549 (human lung cancer)): 5.8 µg/mL (≈ 7.53 µM)
- IC50 [13]: 1.13 µg/mL (≈ 1.47 µM)
- IC90 [13]: 4.75 µg/mL (≈ 6.17 µM)
- IC50 [14]: 0.36 µg/mL (≈ 0.468 µM)
- IC90 [14]: 1.58 µg/mL (≈ 2.05 µM)
- IC50 [15]: 0.88 µg/mL (≈ 1.14 µM)
- IC90 [15]: 3.57 µg/mL (≈ 4.64 µM)
- IC50 [16]: 0.7 µg/mL (≈ 0.909 µM)
- IC90 [16]: 1.11 µg/mL (≈ 1.44 µM)
- IC50 [17]: 0.9 µg/mL (≈ 1.17 µM)
- IC90 [17]: 2.1 µg/mL (≈ 2.73 µM)

Structure (SMILES): COc1ccc2cc1Oc1ccc(cc1)C[C@H]1c3cc(c(OC)cc3CCN1C)Oc1c(OC)c(OC)c(CN3CCCC(O)C3)c3c1[C@H](C2)N(C)CC3 (some centres unmarked) [BS-TE-321]
- IC50 [1]: 0.08 µg/mL (≈ 0.109 µM)
- IC90 [1]: 3.63 µg/mL (≈ 4.93 µM)
- IC50 (MG63 (osteosarcoma)): 1.1 µg/mL (≈ 1.49 µM)
- IC90 (MG63 (osteosarcoma)): 3.2 µg/mL (≈ 4.35 µM)
- IC50 (PC-3 (prostate cancer)): 2.01 µg/mL (≈ 2.73 µM)
- IC90 (PC-3 (prostate cancer)): 3.84 µg/mL (≈ 5.22 µM)
- IC50 [2]: 2.25 µg/mL (≈ 3.06 µM)
- IC90 [2]: 19.1 µg/mL (≈ 25.9 µM)
- IC50 [3]: 3.51 µg/mL (≈ 4.77 µM)
- IC90 [3]: 9.8 µg/mL (≈ 13.3 µM)
- IC50 [4]: 2.6 µg/mL (≈ 3.53 µM)
- IC90 [4]: 9.14 µg/mL (≈ 12.4 µM)
- IC50 [5]: 0.81 µg/mL (≈ 1.1 µM)
- IC90 [5]: 1.24 µg/mL (≈ 1.68 µM)
- IC50 [6]: 0.57 µg/mL (≈ 0.775 µM)
- IC90 [6]: 2.51 µg/mL (≈ 3.41 µM)
- IC50 [7]: 1.4 µg/mL (≈ 1.9 µM)
- IC90 [7]: 4.5 µg/mL (≈ 6.11 µM)
- IC50 [8]: 0.69 µg/mL (≈ 0.938 µM)
- IC90 [8]: 1.71 µg/mL (≈ 2.32 µM)
- IC50 [9]: 1.48 µg/mL (≈ 2.01 µM)
- IC90 [9]: 4.31 µg/mL (≈ 5.86 µM)
- IC50 [10]: 2.8 µg/mL (≈ 3.8 µM)
- IC90 [10]: 6.6 µg/mL (≈ 8.97 µM)
- IC50 [11]: 3.5 µg/mL (≈ 4.76 µM)
- IC90 [11]: > 16 µg/mL
- IC50 [12]: 1.78 µg/mL (≈ 2.42 µM)
- IC90 [12]: 6.73 µg/mL (≈ 9.14 µM)
- IC50 (A549 (human lung cancer)): 4.4 µg/mL (≈ 5.98 µM)
- IC90 (A549 (human lung cancer)): 16 µg/mL (≈ 21.7 µM)
- IC50 [13]: 0.94 µg/mL (≈ 1.28 µM)
- IC90 [13]: 5.75 µg/mL (≈ 7.81 µM)
- IC50 [14]: 0.49 µg/mL (≈ 0.666 µM)
- IC90 [14]: 3.02 µg/mL (≈ 4.1 µM)
- IC50 [15]: 0.48 µg/mL (≈ 0.652 µM)
- IC90 [15]: 2.55 µg/mL (≈ 3.47 µM)
- IC50 [16]: 0.91 µg/mL (≈ 1.24 µM)
- IC90 [16]: 1.78 µg/mL (≈ 2.42 µM)
- IC50 [17]: 0.8 µg/mL (≈ 1.09 µM)
- IC90 [17]: 1.9 µg/mL (≈ 2.58 µM)

Structure (SMILES): COc1ccc2cc1Oc1ccc(cc1)C[C@H]1c3cc(c(OC)cc3CCN1C)Oc1c(OC)c(OC)c(CN3CCC(C#N)CC3)c3c1[C@H](C2)N(C)CC3 [BS-TE-323]
- IC50 [1]: 0.12 µg/mL (≈ 0.161 µM)
- IC90 [1]: 3.88 µg/mL (≈ 5.21 µM)
- IC50 (MG63 (osteosarcoma)): 2.6 µg/mL (≈ 3.49 µM)
- IC90 (MG63 (osteosarcoma)): 5.5 µg/mL (≈ 7.38 µM)
- IC50 (PC-3 (prostate cancer)): 1.88 µg/mL (≈ 2.52 µM)
- IC90 (PC-3 (prostate cancer)): 3.83 µg/mL (≈ 5.14 µM)
- IC50 [2]: 3.6 µg/mL (≈ 4.83 µM)
- IC90 [2]: 23 µg/mL (≈ 30.9 µM)
- IC50 [3]: 2.49 µg/mL (≈ 3.34 µM)
- IC90 [3]: 5.59 µg/mL (≈ 7.5 µM)
- IC50 [4]: 2.46 µg/mL (≈ 3.3 µM)
- IC90 [4]: 7.1 µg/mL (≈ 9.53 µM)
- IC50 [5]: 1.33 µg/mL (≈ 1.79 µM)
- IC90 [5]: 3.88 µg/mL (≈ 5.21 µM)
- IC50 [6]: 0.98 µg/mL (≈ 1.32 µM)
- IC90 [6]: 4.02 µg/mL (≈ 5.4 µM)
- IC50 [7]: 3.2 µg/mL (≈ 4.3 µM)
- IC90 [7]: 8 µg/mL (≈ 10.7 µM)
- IC50 [8]: 1.07 µg/mL (≈ 1.44 µM)
- IC90 [8]: 2.6 µg/mL (≈ 3.49 µM)
- IC50 [9]: 1.2 µg/mL (≈ 1.61 µM)
- IC90 [9]: 3.89 µg/mL (≈ 5.22 µM)
- IC50 [10]: 4.8 µg/mL (≈ 6.44 µM)
- IC90 [10]: 10.4 µg/mL (≈ 14 µM)
- IC50 [11]: 8 µg/mL (≈ 10.7 µM)
- IC90 [11]: > 16 µg/mL
- IC50 [12]: 3.04 µg/mL (≈ 4.08 µM)
- IC90 [12]: 8 µg/mL (≈ 10.7 µM)
- IC50 (A549 (human lung cancer)): 6.2 µg/mL (≈ 8.32 µM)
- IC90 (A549 (human lung cancer)): 16 µg/mL (≈ 21.5 µM)
- IC50 [13]: 1.28 µg/mL (≈ 1.72 µM)
- IC90 [13]: 9 µg/mL (≈ 12.1 µM)
- IC50 [14]: 0.21 µg/mL (≈ 0.282 µM)
- IC90 [14]: 2.16 µg/mL (≈ 2.9 µM)
- IC50 [15]: 1.23 µg/mL (≈ 1.65 µM)
- IC90 [15]: 4.6 µg/mL (≈ 6.18 µM)
- IC50 [16]: 0.95 µg/mL (≈ 1.28 µM)
- IC90 [16]: 2.13 µg/mL (≈ 2.86 µM)
- IC50 [17]: 1.5 µg/mL (≈ 2.01 µM)
- IC90 [17]: 4.5 µg/mL (≈ 6.04 µM)
